{
  "source": "patent US20090247472A1",
  "about": "“TYPE 1, 4-NAPHTOQUINONE COMPOUNDS, COMPOSITIONS COMPRISING THEM AND USE OF THESE COMPOUNDS AS ANTI-CANCER AGENTS” (FLUOFARMA, priority 2006, published 2009)",
  "format_in_all_cases": "cell-based",
  "key": {"cells [1]": {"tested_on": "cells", "assay": "Sub-G1 apoptosis test (DNA fragmentation, fluorescent DNA intercalator), Example 60", "details": "for Activity (sub-Gl): apoptosis, DNA fragmentation by fluorescence; for pro-apoptotic activity (in words): conclusion from the tests of Example 60", "procedure": "The biological tests on activity (Sub-G1) relate to measurement of apoptosis. For this purpose, a fluorescent tracer, a DNA intercalator, makes it possible to display the fragmentation of the DNA. This fragmentation of the DNA results from the induction of the apoptotic phenomenon in the cells. The cells are incubated in the presence of various concentrations of the compounds presented above. The measurement of the apoptosis in the cells is monitored by measuring the fluorescence, thus making it possible to determine the activity of the compounds in […]. The activity tests (sub-G1) on certain compounds are presented below."}, "cells [2]": {"tested_on": "cells", "assay": "Cell proliferation by multiplexed flow cytometry (dilution of a fluorescent tracer), Example 61", "procedure": "(§1) The activities are measured by multiplexed flow cytometry tests, by coupling the measurement of apoptosis and cell proliferation. The cell proliferation is measured by monitoring the dilution of a specific fluorescent tracer during the cell divisions: • the cells are incubated in the presence of several concentrations of compounds, then • the measurements of apoptosis and cell proliferation are made simultaneously by the flow cytometry technique; specimen dose/response curves for the action of the compounds on apoptosis and on cell proliferation are obtained."}, "cells [3]": {"tested_on": "cells", "assay": "Apoptosis (sub-G1) by multiplexed flow cytometry, Example 61", "procedure": "as §1"}, "[4]": {"details": "conclusion from the tests of Example 61"}},
  "data": [
    {"smiles": "CC1=C(CNC(=O)C(C)N)C(=O)c2ccccc2C1=O.Cl", "note": "[Example 17, 2-methyl-3-(L-alaninyl-aminomethyl)-1,4-naphthoquinone chlorhydrate]", "values": [
      {"measurement": "Activity (sub-Gl)", "setting": "cells [1]", "value": 13.3, "unit": "µM"},
      {"measurement": "pro-apoptotic activity (in words)", "setting": "cells [1]", "value": "pro-apoptotic activity"}
    ]},
    {"smiles": "CC1=C(CNC(=O)C(N)CO)C(=O)c2ccccc2C1=O.Cl", "note": "[Example 18, 2-methyl-3-(L-serinyl-aminomethyl)-1,4-naphthoquinone chlorhydrate]", "values": [
      {"measurement": "Activity (sub-Gl)", "setting": "cells [1]", "value": 11.8, "unit": "µM"},
      {"measurement": "pro-apoptotic activity (in words)", "setting": "cells [1]", "value": "pro-apoptotic activity"}
    ]},
    {"smiles": "CC1=C(CNC(=O)C(N)C(C)C)C(=O)c2ccccc2C1=O.Cl", "note": "[Example 19, 2-methyl-3-(D-valinyl-aminomethyl)-1,4-naphthoquinone chlorhydrate]", "values": [
      {"measurement": "Activity (sub-Gl)", "setting": "cells [1]", "value": 12, "unit": "µM"},
      {"measurement": "pro-apoptotic activity (in words)", "setting": "cells [1]", "value": "pro-apoptotic activity"}
    ]},
    {"smiles": "CC1=C(CNC(=O)C(N)C(C)O)C(=O)c2ccccc2C1=O", "note": "[Example 20, 2-methyl-3-(L-threoninyl-aminomethyl)-1,4-naphthoquinone chlorohydrate]", "values": [
      {"measurement": "Activity (sub-Gl)", "setting": "cells [1]", "value": 12.2, "unit": "µM"},
      {"measurement": "pro-apoptotic activity (in words)", "setting": "cells [1]", "value": "pro-apoptotic activity"}
    ]},
    {"smiles": "CC1=C(CCNC(=O)CN)C(=O)c2ccccc2C1=O.Cl", "note": "[Example 26, 2-methyl-3-(glycinyl-aminoethyl)-1,4-naphthoquinone chlorohydrate]", "values": [
      {"measurement": "Activity (prolif at 24 h)", "setting": "cells [2]; cell proliferation at 24 h, flow cytometry", "value": 12.3, "unit": "µM"},
      {"measurement": "anti-proliferative activity (in words)", "setting": "cells [2]; [4]", "value": "anti-proliferative activity"},
      {"measurement": "Activity (sub-Gl)", "setting": "cells [3]; apoptosis, multiplexed flow cytometry", "value": 11.8, "unit": "µM"},
      {"measurement": "pro-apoptotic activity (in words)", "setting": "cells [3]; [4]", "value": "pro-apoptotic"}
    ]}
  ]
}
